Literature values, collected in patent US5277910A, “Process for the preparation of a pharmaceutical composition selectively lowering the blood-lipid level” (priority 1991, dated 1994).

Columns and labels:
[1] = test system: monkeys; details: monkeys fed with alfalfa; in words
[2] = in words

| uterotrophic activity [2] | SMILES | induced syndrome [1] |
| --- | --- | --- |
|  | N=C(N)NOCCC(N)C(=O)O (centres unmarked) [Canavanine, 2-amino-4-(guanidinooxy)-butyric acid] | induces a syndrome resembling lupus erithemathosus |
| high uterotrophic activity | O=c1oc2cc(O)ccc2c2oc3cc(O)ccc3c12 [coumestrol] |  |
